Each structure is given as a SMILES string. Like-named read-outs stand apart in the source and are kept apart here.

Here are results for 39 molecules from US20250171438A1 (Agios Pharmaceuticals, Inc., priority 2022, published 2025).

The assay addresses T1, human PAH with the R408W mutation (Homo sapiens, UniProt P00439, R408W).
T1 construct: expressed in transfected cells
T1 sequence (P00439 1-452 R408W): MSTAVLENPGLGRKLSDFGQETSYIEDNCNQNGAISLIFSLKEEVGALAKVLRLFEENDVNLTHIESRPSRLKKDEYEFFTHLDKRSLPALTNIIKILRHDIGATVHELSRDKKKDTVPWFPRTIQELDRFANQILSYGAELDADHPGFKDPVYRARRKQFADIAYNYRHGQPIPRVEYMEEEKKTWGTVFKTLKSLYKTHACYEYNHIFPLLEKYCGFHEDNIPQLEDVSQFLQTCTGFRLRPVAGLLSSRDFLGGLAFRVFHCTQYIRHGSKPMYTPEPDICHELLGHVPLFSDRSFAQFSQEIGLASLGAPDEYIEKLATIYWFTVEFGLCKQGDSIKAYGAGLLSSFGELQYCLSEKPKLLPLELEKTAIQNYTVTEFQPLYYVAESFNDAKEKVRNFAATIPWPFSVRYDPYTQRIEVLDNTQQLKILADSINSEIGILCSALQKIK
The assay is described as follows: Cell Based Phenylalanine Flux Assay. To be noted: A375 cells expressing human R408W PAH, 13C-Tyrosine by LC-MS, average where tested multiple times, read-out: AC50.

Protocol: Compounds were resuspended in DMSO, and 2-fold serial dilutions were performed to generate a 10-point dose curve. Compounds were added to plated cells in a total volume of 100 pal, and a final DMSO concentration of 0.5%. Each compound was tested in duplicate. Following compound addition, cells were placed in a 5% CO2, 37° C. tissue culture incubator for 24 hrs. After the incubation period, 20 μM sepiapterin and 800 μM 13C9,15N-Phenylalanine were added. After 4 hours, cell media was removed. An aliquot of 10 μl of cell media was combined with 200 μl of extraction buffer (80% acetonitrile/20% H2O) for each well. Determination of ^13C-Tyrosine concentration was assessed by liquid chromatography mass spectrometry.
Where a compound was tested multiple times, the average value of the tests is reported.

`O=C(c1nnc(-c2ccn(C(F)F)n2)o1)N1CCc2[nH]cnc2[C@@H]1c1nc2ccccc2s1` [Example 1874, (R)-(4-(benzo[d]thiazol-2-yl)-6,7-dihydro-1H-imidazo[4,5-c]pyridin-5(4H)-yl)(5-(1-(difluoromethyl)-1H-pyrazol-3-yl)-1,3,4-oxadiazol-2-yl)methanone]: the concentration at half-maximal activity (AC50) (24 hrs compound incubation) was in the range of 1000 to 5000 nM.

With `O=C(c1nc2ccccc2s1)N1CCc2[nH]cnc2C1c1nc2c(F)cccc2s1` (stereo not drawn), the half-maximal activity concentration (AC50) (24 hrs with compound) was over 5000 nM.

With `O=C(c1nccs1)N1CCc2[nH]cnc2C1c1nc2cccc(F)c2[nH]1` (stereo not drawn), the AC50 (24 hrs with compound) is over 5000 nM.

Turning to `O=C(C1CC1F)N1CCc2[nH]cnc2C1c1nc2ccccc2s1` (stereo not drawn), for the setting “24 hrs with compound”, the AC50 was 1000 to 5000 nM.

`Cn1ncc(C(=O)N2CCc3[nH]cnc3C2c2nc3c(F)cccc3s2)c1N` (stereo not drawn): where the note is “24 hrs with compound”, the AC50 was over 5000 nM.

On to `CN(C)Cc1nc(C#N)c(C(=O)N2CCc3[nH]cnc3C2c2nc3ccccc3s2)o1` (stereo not drawn), for which, for the setting “24 hrs with compound”, the AC50 lay in the range of 1000 to 5000 nM.

As for `Cc1nc(CCCN(C)C)oc1C(=O)N1CCc2[nH]cnc2C1c1nc2ccccc2s1` (stereo not drawn), the AC50 (24 hrs with compound) was 1000 to 5000 nM.

Regarding `O=C(c1ocnc1-c1ccccn1)N1CCCc2[nH]cnc2C1c1nc2ccccc2s1` (stereo not drawn), for the setting “24 hrs with compound”, the AC50 is over 5000 nM.

Turning to `O=C(c1nc(Cl)cs1)N1CCc2[nH]cnc2[C@H]1c1nc2cc(F)ccc2s1` [Example 1297], where the note is “24 hrs compound incubation”, the AC50 lay within 500 to 1000 nM.

In the case of `Cn1ccc(-c2nnc(C(=O)N3CCc4[nH]cnc4[C@H]3c3nc4ccccc4s3)o2)n1` [Example 1805], the concentration at half-maximal activity (AC50) (24 hrs compound incubation) was under 500 nM.

For the molecule `CN(C)CCc1ccc2c(C(=O)N3CCc4[nH]cnc4[C@H]3c3nc4ccccc4s3)cnn2c1` [Example 1453], under “24 hrs compound incubation”, the AC50 is under 500 nM.

On to `O=C(c1cnn(CC(F)(F)F)c1C(F)F)N1CCc2[nH]cnc2[C@@H]1c1nc2c(F)cccc2s1` [Example 1976, (R)-(5-(difluoromethyl)-1-(2,2,2-trifluoroethyl)-1H-pyrazol-4-yl)(4-(4-fluorobenzo[d]thiazol-2-yl)-6,7-dihydro-1H-imidazo[4,5-c]pyridin-5(4H)-yl)methanone], for which the concentration at half-maximal activity (AC50) (24 hrs compound incubation) was 500 to 1000 nM.

In the case of `O=C(CCc1nccs1)N1CCc2[nH]cnc2[C@H]1c1nc2ccc(Br)cc2s1` [Example 1081, (S)-1-(4-(6-bromobenzo[d]thiazol-2-yl)-6,7-dihydro-1H-imidazo[4,5-c]pyridin-5(4H)-yl)-3-(thiazol-2-yl)propan-1-one], the AC50 (24 hrs compound incubation) is 500 to 1000 nM.

Regarding `Cc1nc(N2CCOCC2)oc1C(=O)N1CCc2[nH]cnc2C1c1nc2c(F)cccc2s1` (stereo not drawn), for the setting “24 hrs with compound”, the AC50 fell in the range of 1000 to 5000 nM.

Take `Cc1nnc(C(=O)N2CCc3[nH]cnc3[C@@H]2c2nc3cccc(F)c3s2)s1` [Example 1332, (R)-(4-(7-fluorobenzo[d]thiazol-2-yl)-6,7-dihydro-1H-imidazo[4,5-c]pyridin-5(4H)-yl)(5-methyl-1,3,4-thiadiazol-2-yl)methanone]: for the setting “24 hrs compound incubation”, the AC50 was in the range of 1000 to 5000 nM.

`Nc1nnc(CCC(=O)N2CCc3[nH]cnc3C2c2nc3ccccc3[nH]2)s1` (stereo not drawn): where the note is “24 hrs with compound”, the concentration at half-maximal activity (AC50) is over 5000 nM.

Regarding `Cc1cnc(CC(=O)N2CCc3[nH]cnc3[C@H]2c2nc3ccccc3s2)s1` [Example 1457], the AC50 (24 hrs compound incubation) is 1000 to 5000 nM.

For the molecule `Cc1nc(Br)c(C(=O)N2CCc3[nH]cnc3[C@@H]2c2nc3c(F)cccc3s2)o1` [Example 1759, (R)-(4-bromo-2-methyloxazol-5-yl)(4-(4-fluorobenzo[d]thiazol-2-yl)-6,7-dihydro-1H-imidazo[4,5-c]pyridin-5(4H)-yl)methanone], the AC50 (24 hrs compound incubation) is 1000 to 5000 nM.

With `Cn1ncc(C(=O)N2CCc3[nH]cnc3C2c2nc3ccccc3s2)n1` (stereo not drawn), for the setting “24 hrs with compound”, the AC50 lay in the range of 1000 to 5000 nM.

With `O=C(c1cnn2cccc(F)c12)N1CCc2[nH]cnc2C1c1nc2ccc(F)cc2s1` (stereo not drawn), the half-maximal activity concentration (AC50) (24 hrs with compound) is over 5000 nM.

For `O=C(c1cnc(-c2cc(C(F)(F)F)ccn2)s1)N1CCc2[nH]cnc2[C@H]1c1nc2ccccc2s1` [Example 1357], for the setting “24 hrs compound incubation”, the AC50 is under 500 nM.

On to `O=C(c1cnn2cc(Cl)ccc12)N1CCc2[nH]cnc2[C@H]1c1nc2c(F)cccc2s1` [Example 1237], for which the half-maximal activity concentration (AC50) (24 hrs compound incubation) lay within 500 to 1000 nM.

On to `COc1cccc(C=CC(=O)N2CCc3[nH]cnc3C2c2nc3ccccc3[nH]2)c1` (stereo not drawn), for which, where the note is “24 hrs with compound”, the AC50 is over 5000 nM.

`Cn1nc(C(C)(C)O)cc1C(=O)N1CCc2[nH]cnc2C1c1nc2c(F)cccc2s1` (stereo not drawn): the concentration at half-maximal activity (AC50) (24 hrs with compound) was over 5000 nM.

With `O=C(c1ncc(Cl)s1)N1CCc2[nH]cnc2[C@H]1c1nc2ccccc2[nH]1` [Example 921, (S)-(4-(1H-benzo[d]imidazol-2-yl)-6,7-dihydro-1H-imidazo[4,5-c]pyridin-5(4H)-yl)(5-chlorothiazol-2-yl)methanone], for the setting “24 hrs compound incubation”, the AC50 is 500 to 1000 nM.

Consider `Cn1nc(C(F)F)nc1C(=O)N1CCc2[nH]cnc2C1c1nc2c(F)cccc2s1` (stereo not drawn), for which the AC50 (24 hrs with compound) was 1000 to 5000 nM.

With `Cn1cc(-c2ncc(C(=O)N3CCc4[nH]cnc4[C@@H]3c3nc4c(F)cccc4s3)o2)cn1` [Example 1345, (R)-(4-(4-fluorobenzo[d]thiazol-2-yl)-6,7-dihydro-1H-imidazo[4,5-c]pyridin-5(4H)-yl)(2-(1-methyl-1H-pyrazol-4-yl)oxazol-5-yl)methanone], for the setting “24 hrs compound incubation”, the AC50 is 1000 to 5000 nM.

Regarding `Cn1cc(C(=O)N2CCc3[nH]cnc3[C@@H]2c2nc3c(F)cccc3s2)c(Cl)n1` [Example 1643, (R)-(3-chloro-1-methyl-1H-pyrazol-4-yl)(4-(4-fluorobenzo[d]thiazol-2-yl)-6,7-dihydro-1H-imidazo[4,5-c]pyridin-5(4H)-yl)methanone], the half-maximal activity concentration (AC50) (24 hrs compound incubation) lay within 1000 to 5000 nM.

Consider `Cn1ccc(C(=O)N2CCc3[nH]cnc3C2c2nc3ccccc3s2)n1` (stereo not drawn), for which the AC50 (24 hrs with compound) lay within 1000 to 5000 nM.

Take `O=C(c1cnc(C(F)(F)F)o1)N1CCc2[nH]cnc2[C@@H]1c1nc2ccccc2s1` [Example 1348, (R)-(4-(benzo[d]thiazol-2-yl)-6,7-dihydro-1H-imidazo[4,5-c]pyridin-5(4H)-yl)(2-(trifluoromethyl)oxazol-5-yl)methanone]: under “24 hrs compound incubation”, the concentration at half-maximal activity (AC50) lay in the range of 1000 to 5000 nM.

`COCc1ccc2c(C(=O)N3CC4(CC4)c4[nH]cnc4C3c3nc4ccccc4s3)cnn2c1` (stereo not drawn): the AC50 (24 hrs with compound) lay in the range of 1000 to 5000 nM.

As to `c1ccc2oc(N3CCc4[nH]cnc4C3c3nc4ccccc4s3)nc2c1` (stereo not drawn), the half-maximal activity concentration (AC50) (24 hrs with compound) lay within 1000 to 5000 nM.

With `O=C(c1cnn2ccccc12)N1CCc2[nH]cnc2[C@@H]1c1nc2ccc(Br)cc2[nH]1` [Example 941, (R)-(4-(6-bromo-1H-benzo[d]imidazol-2-yl)-6,7-dihydro-1H-imidazo[4,5-c]pyridin-5(4H)-yl)(pyrazolo[1,5-a]pyridin-3-yl)methanone], the AC50 (24 hrs compound incubation) lay within 1000 to 5000 nM.

As to `O=C(c1ocnc1C1CC1)N1CCc2[nH]cnc2[C@H]1c1nc2c(F)cccc2s1` [Example 1495], under “24 hrs compound incubation”, the concentration at half-maximal activity (AC50) was under 500 nM.

Regarding `O=C(c1cnn2ccc(Cl)cc12)N1CCc2[nH]cnc2[C@H]1c1nc2ccc(Br)cc2[nH]1` [Example 965, (S)-(4-(6-bromo-1H-benzo[d]imidazol-2-yl)-6,7-dihydro-1H-imidazo[4,5-c]pyridin-5(4H)-yl)(5-chloropyrazolo[1,5-a]pyridin-3-yl)methanone], the AC50 (24 hrs compound incubation) lay in the range of 1000 to 5000 nM.

Consider `O=C(CC1(O)CCC1)N1CCc2[nH]cnc2[C@H]1c1nc2c(F)cccc2s1` [Example 1647, (S)-1-(4-(4-fluorobenzo[d]thiazol-2-yl)-6,7-dihydro-1H-imidazo[4,5-c]pyridin-5(4H)-yl)-2-(1-hydroxycyclobutyl)ethanone], for which the AC50 (24 hrs compound incubation) was in the range of 500 to 1000 nM.

On to `Cn1nc(CO)cc1C(=O)N1CCc2[nH]cnc2[C@@H]1c1nc2c(F)cccc2s1` (single isomer, unassigned), for which the AC50 (24 hrs with compound) is over 5000 nM.

For the molecule `O=C(Cc1ncc(-c2ccccc2)s1)N1CCc2[nH]cnc2C1c1nc2ccccc2s1` (stereo not drawn), for the setting “24 hrs with compound”, the AC50 is over 5000 nM.

For `Cn1ncc(C(=O)N2CCc3[nH]cnc3C2c2nc3c(F)cccc3s2)c1Br` (stereo not drawn), for the setting “24 hrs with compound”, the AC50 was in the range of 1000 to 5000 nM.

What is called AC50 is the concentration giving half of the maximal activity seen.
